Measured values published in patent US9938262B2, “Benzamides” (Merck Patent GmbH, priority 2011, dated 2018).
Read-outs that look alike come from different tables or passages of the source.

What was measured:
FSHR = molecular target: T1, FSHR (Homo sapiens, UniProt P23945); assay: EC50 of cyclic AMP production in CHO FSHR cells + EC20 FSH (Assay A); format: cell-based
T1 construct: expressed in transfected cells; host or cells: CHO (Cho-FSHR-LUC-1-1-43)
Procedure, shortened: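 cAMP HTRF ratio (665/620 nm) read after 1 h, 37 °C exposure of CHO-FSHR cells to compound in presence of EC20 FSH ([…]) and IBMX 200 μM. Responses given relative to FSH standard maximum; EC50 derived.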

[1] = molecular target: T2, follicle-stimulating hormone (FSH) receptor (Rattus norvegicus, UniProt P20395); assay: Rat granulosa EC50 FSH (Assay B); format: cell-based; conditions: rat granulosa cells
T2 construct: endogenous in cells; host or cells: rat granulosa cells
T2 sequence (P20395 18-692): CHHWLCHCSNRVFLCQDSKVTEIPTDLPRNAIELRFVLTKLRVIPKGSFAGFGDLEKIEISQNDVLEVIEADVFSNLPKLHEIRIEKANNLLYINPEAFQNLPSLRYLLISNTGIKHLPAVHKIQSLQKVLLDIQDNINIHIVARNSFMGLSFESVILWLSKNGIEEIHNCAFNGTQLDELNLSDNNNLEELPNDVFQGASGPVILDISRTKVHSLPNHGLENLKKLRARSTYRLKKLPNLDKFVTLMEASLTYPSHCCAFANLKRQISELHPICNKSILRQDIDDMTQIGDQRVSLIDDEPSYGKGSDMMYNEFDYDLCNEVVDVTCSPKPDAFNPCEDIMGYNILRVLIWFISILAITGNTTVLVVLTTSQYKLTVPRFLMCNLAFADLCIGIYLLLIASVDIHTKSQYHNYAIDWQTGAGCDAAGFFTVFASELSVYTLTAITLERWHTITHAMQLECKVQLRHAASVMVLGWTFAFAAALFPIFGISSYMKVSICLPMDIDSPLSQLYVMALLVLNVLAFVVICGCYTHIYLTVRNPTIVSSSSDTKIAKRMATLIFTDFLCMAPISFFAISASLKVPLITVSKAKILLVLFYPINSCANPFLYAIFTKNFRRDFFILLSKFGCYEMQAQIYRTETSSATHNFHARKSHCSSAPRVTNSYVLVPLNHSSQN
Procedure: Example 11: Rat Granulosa EC50 FSH (Assay B)
The assay was performed pursuant to the teaching of Yanofsky et al. (2006) Allosteric activation of the follicle-stimulating hormone (FSH) receptor by selective, nonpeptide agonists. JBC 281(19): 13226-13233, which is incorporated by reference in the disclosure of the invention.

[2] = CHO FSHR cells + EC20 FSH, Table 1, read-out: Assay A EC50 of cyclic AMP production
[3] = CHO FSHR cells + EC20 FSH, Table 2, read-out: Assay A EC50 of cyclic AMP production

T1 sequence (P23945 18-695): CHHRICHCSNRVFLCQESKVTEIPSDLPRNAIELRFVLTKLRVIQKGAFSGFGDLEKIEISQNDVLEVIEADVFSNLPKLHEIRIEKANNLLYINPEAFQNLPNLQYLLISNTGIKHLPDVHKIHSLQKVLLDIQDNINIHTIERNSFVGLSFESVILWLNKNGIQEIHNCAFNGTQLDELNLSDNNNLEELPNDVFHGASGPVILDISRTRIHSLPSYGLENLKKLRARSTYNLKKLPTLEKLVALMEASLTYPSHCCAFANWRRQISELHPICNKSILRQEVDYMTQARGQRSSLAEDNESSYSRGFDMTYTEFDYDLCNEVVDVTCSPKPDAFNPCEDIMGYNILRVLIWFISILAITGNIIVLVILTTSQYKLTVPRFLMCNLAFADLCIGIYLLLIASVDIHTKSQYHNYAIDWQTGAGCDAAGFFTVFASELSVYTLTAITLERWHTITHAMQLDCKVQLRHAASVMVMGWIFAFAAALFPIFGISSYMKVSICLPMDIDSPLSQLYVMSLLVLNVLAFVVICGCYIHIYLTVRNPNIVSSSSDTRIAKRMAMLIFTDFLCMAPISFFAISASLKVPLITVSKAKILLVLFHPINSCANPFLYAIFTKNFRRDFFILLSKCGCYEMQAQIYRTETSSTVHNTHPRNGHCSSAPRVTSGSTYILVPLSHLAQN
T1 sequence (P01215 25-116 partner): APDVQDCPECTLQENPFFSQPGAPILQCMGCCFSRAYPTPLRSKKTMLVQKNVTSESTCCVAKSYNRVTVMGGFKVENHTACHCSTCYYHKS
T1 sequence (P01225 19-129 partner): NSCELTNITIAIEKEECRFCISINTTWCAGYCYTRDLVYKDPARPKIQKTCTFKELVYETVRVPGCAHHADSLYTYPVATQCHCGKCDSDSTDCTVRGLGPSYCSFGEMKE

| SMILES | EC50 (FSHR; [2]) [µM] | EC50 ([1]; Table 1) [µM] | EC50 (FSHR; [3]) [µM] | EC50 ([1]; Table 2) [µM] | other results |
| --- | --- | --- | --- | --- | --- |
| Cc1ccccc1N1CCN(c2ccc(C(=O)NCCCN3CCCC3=O)cc2NC(=O)c2coc(C3CC3)n2)CC1 [Compound 105] | < 0.1 | 0.1 to 1 |  |  |  |
| Cc1ccccc1N1CCN(c2ccc(C(=O)NCCCN3CCCC3=O)cc2NC(=O)c2ccc(Br)o2)CC1 [Compound 143, 5-Bromo-furan-2-carboxylic acid [5-[3-(2-oxo-pyrrolidin-1-yl)-propylcarbamoyl]-2-(4-o-tolyl-piperazin-1-yl)-phenyl]-amide] |  | 0.1 to 1 |  |  | EC50 (FSHR): 0.1 to 1 µM |
| Cc1ccccc1N1CCN(c2ccc(C(=O)NCCCN3C(=O)CCC3=O)cc2NC(=O)c2ccco2)CC1 [Compound 147] | 0.1 to 1 | 0.1 to 1 |  |  |  |
| Cc1ccccc1N1CCN(c2ccc(C(=O)NCCCN3C(=O)CSC3=O)cc2NC(=O)c2ccco2)CC1 [Compound 150] | 0.1 to 1 | 0.1 to 1 |  |  |  |
| Cc1ccccc1N1CCN(c2ccc(C(=O)NCCCc3cn[nH]c3)cc2NC(=O)c2ccco2)CC1 [Compound 152] | 0.1 to 1 | < 0.1 |  |  |  |
| Cc1ccccc1N1CCN(c2ccc(C(=O)NCCCN3CCOC3=O)cc2NC(=O)c2ccco2)CC1 [Compound 155] | 0.1 to 1 | 1 to 10 |  |  |  |
| Cc1ccccc1N1CCN(c2ccc(C(=O)NCCc3cccc(C(N)=O)c3)cc2NC(=O)c2ccco2)CC1 [Compound 188] | 0.1 to 1 | 0.1 to 1 |  |  |  |
| Cc1ccccc1N1CCN(c2ccc(C(=O)NCc3cccc(C(N)=O)c3)cc2NC(=O)c2ccco2)CC1 [Compound 189] | < 0.1 | 0.1 to 1 |  |  |  |
| Cc1ccccc1N1CCN(c2ccc(C(=O)N3CCC4(CCOC4)CC3)cc2NC(=O)c2ccco2)CC1 [Compound 224] |  | 1 to 10 |  |  | activation at 5 µM (FSHR; 1 h, 5 μM, effect relative to maximum response of the FSH standard, Table 1): 10% |
| Cc1ccc(C(=O)Nc2cc(C(=O)NCCCCO)ccc2N2CCN(c3ccccc3C)CC2)o1 [Compound 241, 5-Methyl-furan-2-carboxylic acid [5-(4-hydroxy-butylcarbamoyl)-2-(4-o-tolyl-piperazin-1-yl)-phenyl]-amide] | 0.1 to 1 |  |  |  | Assay B % at 5 μM ([1]; 5 μM, Table 1): 177% |
| Cc1ccc(C(=O)Nc2cc(C(=O)NCCCN3CCCC3=O)ccc2N2CCN(c3ccccc3C(F)(F)F)CC2)o1 [Compound 246] | 1 to 10 | 1 to 10 |  |  |  |
| Cc1ccccc1N1CCN(c2ccc(C(=O)NCc3cccc(C(N)=O)c3)cc2NC(=O)c2coc(C3CC3)n2)CC1 [Compound 304] |  |  | < 0.1 |  | Assay B % at 1.25 μM ([1]; Table 2): 79% |
| Cc1ccccc1N1CCN(c2ccc(C(=O)NCCc3cccc(C(N)=O)c3)cc2NC(=O)c2coc(C3CC3)n2)CC1 [Compound 307] |  |  | 0.1 to 1 | 1 to 10 |  |
| Cc1ccccc1N1CCN(c2ccc(C(=O)N[C@H]3O[C@@H](CO)[C@H](O)[C@@H]3O)cc2NC(=O)c2coc(C3CC3)n2)CC1 [Compound 311] |  |  | 0.1 to 1 | 0.1 to 1 |  |
| Cc1ccccc1N1CCN(c2ccc(C(=O)NCc3cccc(CN(C)C)c3)cc2NC(=O)c2ccco2)CC1 [Compound 320] |  |  | 0.1 to 1 | 0.1 to 1 |  |
| Cc1ccc(C(=O)Nc2cc(C(=O)NCCCN3CCOC3=O)ccc2N2CCN(c3ccccc3C)CC2)o1 [Compound 322] |  |  | 0.1 to 1 | 1 to 10 |  |
| Cc1ccccc1N1CCN(c2ccc(C(=O)NCCS(=O)(=O)N3CCCC3)cc2NC(=O)c2coc(C3CC3)n2)CC1 [Compound 344] |  |  | 1 to 10 | 0.1 to 1 |  |
| Cc1ccccc1N1CCN(c2ccc(C(=O)NCCCN3C(=O)[C@H]4C[C@@H]3C(O)C4O)cc2NC(=O)c2coc(C3CC3)n2)CC1 (some centres unmarked) [Compound 365] |  |  | 0.1 to 1 | < 0.1 |  |
| Cc1ccccc1N1CCN(c2ccc(C(=O)NCCCc3nn[nH]n3)cc2NC(=O)c2coc(C3CC3)n2)CC1 [Compound 392] |  |  | < 0.1 | 0.1 to 1 |  |
| Cc1nc(C)n(CCCNC(=O)c2ccc(N3CCN(c4ccccc4C)CC3)c(NC(=O)c3coc(C4CC4)n3)c2)n1 [Compound 394] |  |  | 0.1 to 1 |  | Assay B % at 1.25 μM ([1]; Table 2): 50% |
| O=C(NCCCN1CCCC1=O)c1ccc(N2CCN(c3ncccc3Cl)CC2)c(NC(=O)c2coc(C3CC3)n2)c1 [Compound 510] |  |  | < 0.1 | 1 to 10 |  |
| Cc1ccnc(N2CCN(c3ccc(C(=O)NCCCN4CCCC4=O)cc3NC(=O)c3coc(C4CC4)n3)CC2)c1 [Compound 529] |  |  | 0.1 to 1 | 1 to 10 |  |
| COc1ccnc(N2CCN(c3ccc(C(=O)NCCCN4CCCC4=O)cc3NC(=O)c3coc(C4CC4)n3)CC2)n1 [Compound 601] |  |  | 0.1 to 1 | 1 to 10 |  |

More lines, main results first:

| EC50 (FSHR; [2]) [µM] | EC50 ([1]; Table 1) [µM] | EC50 (FSHR; [3]) [µM] | EC50 ([1]; Table 2) [µM] | SMILES | other results |
| --- | --- | --- | --- | --- | --- |
| 0.1 to 1 | 1 to 10 |  |  | Cc1ccccc1N1CCN(c2ccc(C(=O)NCCCN3CCCC3=O)cc2NC(=O)c2ccccc2F)CC1 [Compound 85] |  |
| 0.1 to 1 | 0.1 to 1 |  |  | Cc1ccccc1N1CCN(c2ccc(C(=O)NCCCN3CCCC3=O)cc2NC(=O)c2ccc(F)cn2)CC1 [Compound 128] |  |
| 0.1 to 1 | 0.1 to 1 |  |  | Cc1ccccc1N1CCN(c2ccc(C(=O)NCCCN3CCCC3=O)cc2NC(=O)c2ccc(Cl)o2)CC1 [Compound 135] |  |
| 0.1 to 1 | 1 to 10 |  |  | C#Cc1ccc(C(=O)Nc2cc(C(=O)NCCCN3CCCC3=O)ccc2N2CCN(c3ccccc3C)CC2)o1 [Compound 176, 5-ethynyl-furan-2-carboxylic acid [5-[3-(2-oxo-pyrrolidin-1-yl)-propylcarbamoyl]-2-(4-o-tolyl-piperazin-1-yl)-phenyl]-amide] |  |
| 0.1 to 1 | 0.1 to 1 |  |  | Cc1csc(C(=O)Nc2cc(C(=O)NCCCN3CCCC3=O)ccc2N2CCN(c3ccccc3C)CC2)n1 [Compound 203] |  |
| 0.1 to 1 | 0.1 to 1 |  |  | Cc1ccccc1N1CCN(c2ccc(C(=O)NCCCN3CCCC3=O)cc2NC(=O)c2coc(Cl)n2)CC1 [Compound 207] |  |
|  |  | 0.1 to 1 | 1 to 10 | Cc1ncc(C(=O)Nc2cc(C(=O)NCCCN3CCCC3=O)ccc2N2CCN(c3ccccc3C)CC2)o1 [Compound 349] |  |
|  |  | 0.1 to 1 | 1 to 10 | Cc1ccc(CNc2cc(C(=O)NCCCN3CCCC3=O)ccc2N2CCN(c3ccccc3C)CC2)o1 [Compound 410] |  |
|  |  | 0.1 to 1 | 0.1 to 1 | Cc1ccccc1N1CCN(c2ccc(C(=O)NCCCN3CCCC3=O)cc2NC(=O)c2ccn(C)n2)CC1 [Compound 435] |  |
|  |  | 0.1 to 1 | 0.1 to 1 | Cc1ccc(C(=O)Nc2cc(C(=O)NCCCN3CCCC3=O)ccc2N2CCN(c3ccccc3C3CC3)CC2)o1 [Compound 523] |  |
|  |  | 0.1 to 1 | > 10 | Cc1ccccc1N1CCN(c2ccc(C(=O)NCCCN3CCCC3=O)cc2NCc2ccccn2)CC1 [Compound 526] |  |
